Values after ≈ are worked out from the molar mass of the structure shown.
How the values were obtained:
Assay type in all cases: functional
[1] = test system: Bacillus subtilis; assay: Antimicrobial activity against Bacillus subtilis MTCC 441 by broth microdilution technique
[2] = test system: Escherichia coli; assay: Antimicrobial activity against Escherichia coli MTCC 443 by broth microdilution technique
[3] = test system: Staphylococcus aureus; assay: Antimicrobial activity against Staphylococcus aureus MTCC 96 by broth microdilution technique
[4] = test system: Pseudomonas aeruginosa; assay: Antimicrobial activity against Pseudomonas aeruginosa MTCC 1688 by broth microdilution technique
[5] = test system: Candida albicans; assay: Antimicrobial activity against Candida albicans MTCC 227 by broth serial dilution technique

O=C(N[C@H](CO)[C@H](O)c1ccc([N+](=O)[O-])cc1)C(Cl)Cl [CHLORAMPHENICOL]
MIC50 [1]: 50 µg/mL (≈ 155 µM) | MIC50 [2]: 50 µg/mL (≈ 155 µM) | MIC50 [3]: 50 µg/mL (≈ 155 µM) | MIC50 [4]: 50 µg/mL (≈ 155 µM)

O=C(c1cnn(-c2ccc(F)c(F)c2)c1)c1ccccc1O
MIC50 [1]: 12.5 µg/mL (≈ 41.6 µM) | MIC50 [2]: 250 µg/mL (≈ 833 µM) | MIC50 [3]: 500 µg/mL (≈ 1670 µM) | MIC50 [4]: 555 µg/mL (≈ 1850 µM) | MIC50 [5]: 100 µg/mL (≈ 333 µM)

Fc1ccc(-n2cc(-c3nc4cc(Cl)ccc4o3)cn2)cc1F
MIC50 [1]: 200 µg/mL (≈ 603 µM) | MIC50 [2]: 100 µg/mL (≈ 301 µM) | MIC50 [3]: 125 µg/mL (≈ 377 µM) | MIC50 [4]: 125 µg/mL (≈ 377 µM) | MIC50 [5]: 500 µg/mL (≈ 1510 µM)

CC1(C)S[C@@H]2[C@H](NC(=O)[C@H](N)c3ccccc3)C(=O)N2[C@H]1C(=O)O [AMPICILLIN]
MIC50 [1]: 250 µg/mL (≈ 715 µM) | MIC50 [2]: 100 µg/mL (≈ 286 µM) | MIC50 [3]: 250 µg/mL (≈ 715 µM) | MIC50 [4]: 100 µg/mL (≈ 286 µM)

Cc1ccc(O)c(C(=O)c2cnn(-c3ccc(F)c(F)c3)c2)c1
MIC50 [1]: 500 µg/mL (≈ 1590 µM) | MIC50 [2]: 500 µg/mL (≈ 1590 µM) | MIC50 [3]: 500 µg/mL (≈ 1590 µM) | MIC50 [4]: 250 µg/mL (≈ 795 µM) | MIC50 [5]: 1000 µg/mL (≈ 3180 µM)

O/N=C(/c1cnn(-c2ccc(F)c(F)c2)c1)c1cc(F)ccc1O
MIC50 [1]: 250 µg/mL (≈ 750 µM) | MIC50 [2]: 500 µg/mL (≈ 1500 µM) | MIC50 [3]: 500 µg/mL (≈ 1500 µM) | MIC50 [4]: 500 µg/mL (≈ 1500 µM) | MIC50 [5]: 1000 µg/mL (≈ 3000 µM)

Fc1ccc(-n2cc(-c3nc4ccccc4o3)cn2)cc1F
MIC50 [1]: 200 µg/mL (≈ 673 µM) | MIC50 [2]: 125 µg/mL (≈ 421 µM) | MIC50 [3]: 125 µg/mL (≈ 421 µM) | MIC50 [4]: 100 µg/mL (≈ 336 µM) | MIC50 [5]: 1000 µg/mL (≈ 3360 µM)

Cc1ccc2oc(-c3cnn(-c4ccc(F)c(F)c4)c3)nc2c1
MIC50 [1]: 200 µg/mL (≈ 642 µM) | MIC50 [2]: 500 µg/mL (≈ 1610 µM) | MIC50 [3]: 50 µg/mL (≈ 161 µM) | MIC50 [4]: 62.5 µg/mL (≈ 201 µM) | MIC50 [5]: 500 µg/mL (≈ 1610 µM)

COC1=CC(=O)C[C@@H](C)[C@]12Oc1c(Cl)c(OC)cc(OC)c1C2=O [GRISEOFULVIN]
MIC50 [5]: 500 µg/mL (≈ 1420 µM)

NYSTATIN
MIC50 [5]: 100 µg/mL

O/N=C(/c1cnn(-c2ccc(F)c(F)c2)c1)c1cc(Br)ccc1O
MIC50 [1]: 1000 µg/mL (≈ 2540 µM) | MIC50 [2]: 200 µg/mL (≈ 507 µM) | MIC50 [3]: 500 µg/mL (≈ 1270 µM) | MIC50 [4]: 100 µg/mL (≈ 254 µM) | MIC50 [5]: 500 µg/mL (≈ 1270 µM)

O/N=C(/c1cnn(-c2ccc(F)c(F)c2)c1)c1cc(Cl)ccc1O
MIC50 [1]: 62.5 µg/mL (≈ 179 µM) | MIC50 [2]: 12.5 µg/mL (≈ 35.7 µM) | MIC50 [3]: 100 µg/mL (≈ 286 µM) | MIC50 [4]: 125 µg/mL (≈ 357 µM) | MIC50 [5]: 1000 µg/mL (≈ 2860 µM)

GENTAMICIN
MIC50 [1]: 1 µg/mL | MIC50 [2]: 0.05 µg/mL | MIC50 [3]: 0.25 µg/mL | MIC50 [4]: 1 µg/mL

O=C(c1cnn(-c2ccc(F)c(F)c2)c1)c1cc(F)cc(Cl)c1O
MIC50 [1]: 500 µg/mL (≈ 1420 µM) | MIC50 [2]: 500 µg/mL (≈ 1420 µM) | MIC50 [3]: 1000 µg/mL (≈ 2840 µM) | MIC50 [4]: 500 µg/mL (≈ 1420 µM) | MIC50 [5]: 250 µg/mL (≈ 709 µM)

O=C(c1cnn(-c2ccc(F)c(F)c2)c1)c1cc(Cl)ccc1O
MIC50 [1]: 500 µg/mL (≈ 1490 µM) | MIC50 [2]: 250 µg/mL (≈ 747 µM) | MIC50 [3]: 1000 µg/mL (≈ 2990 µM) | MIC50 [4]: 500 µg/mL (≈ 1490 µM) | MIC50 [5]: 500 µg/mL (≈ 1490 µM)

Fc1ccc(-n2cc(-c3nc4cc(Br)ccc4o3)cn2)cc1F
MIC50 [1]: 250 µg/mL (≈ 665 µM) | MIC50 [2]: 250 µg/mL (≈ 665 µM) | MIC50 [3]: 250 µg/mL (≈ 665 µM) | MIC50 [4]: 250 µg/mL (≈ 665 µM) | MIC50 [5]: 500 µg/mL (≈ 1330 µM)

Cc1cc(C)c(O)c(C(=O)c2cnn(-c3ccc(F)c(F)c3)c2)c1
MIC50 [1]: 500 µg/mL (≈ 1520 µM) | MIC50 [2]: 500 µg/mL (≈ 1520 µM) | MIC50 [3]: 500 µg/mL (≈ 1520 µM) | MIC50 [4]: 250 µg/mL (≈ 761 µM) | MIC50 [5]: 1000 µg/mL (≈ 3050 µM)

O/N=C(/c1cnn(-c2ccc(F)c(F)c2)c1)c1ccccc1O
MIC50 [1]: > 1000 µg/mL | MIC50 [2]: 500 µg/mL (≈ 1590 µM) | MIC50 [3]: > 1000 µg/mL | MIC50 [4]: 500 µg/mL (≈ 1590 µM) | MIC50 [5]: 1000 µg/mL (≈ 3170 µM)

Cc1ccc(C(=O)c2cnn(-c3ccc(F)c(F)c3)c2)c(O)c1
MIC50 [1]: 100 µg/mL (≈ 318 µM) | MIC50 [2]: 125 µg/mL (≈ 398 µM) | MIC50 [3]: 200 µg/mL (≈ 636 µM) | MIC50 [4]: 62.5 µg/mL (≈ 199 µM) | MIC50 [5]: 500 µg/mL (≈ 1590 µM)

O=C(c1cnn(-c2ccc(F)c(F)c2)c1)c1cc(Br)ccc1O
MIC50 [1]: 100 µg/mL (≈ 264 µM) | MIC50 [2]: 500 µg/mL (≈ 1320 µM) | MIC50 [3]: 125 µg/mL (≈ 330 µM) | MIC50 [4]: 500 µg/mL (≈ 1320 µM) | MIC50 [5]: > 1000 µg/mL

CCn1cc(C(=O)O)c(=O)c2cc(F)c(N3CCNCC3)cc21 [NORFLOXACIN]
MIC50 [1]: 100 µg/mL (≈ 313 µM) | MIC50 [2]: 10 µg/mL (≈ 31.3 µM) | MIC50 [3]: 10 µg/mL (≈ 31.3 µM) | MIC50 [4]: 10 µg/mL (≈ 31.3 µM)

Fc1ccc2oc(-c3cnn(-c4ccc(F)c(F)c4)c3)nc2c1
MIC50 [1]: 200 µg/mL (≈ 634 µM) | MIC50 [2]: 250 µg/mL (≈ 793 µM) | MIC50 [3]: 500 µg/mL (≈ 1590 µM) | MIC50 [4]: 50 µg/mL (≈ 159 µM) | MIC50 [5]: 250 µg/mL (≈ 793 µM)

O=C(c1cnn(-c2ccc(F)c(F)c2)c1)c1cc(F)ccc1O
MIC50 [1]: 62.5 µg/mL (≈ 196 µM) | MIC50 [2]: 62.5 µg/mL (≈ 196 µM) | MIC50 [3]: 100 µg/mL (≈ 314 µM) | MIC50 [4]: 50 µg/mL (≈ 157 µM) | MIC50 [5]: 500 µg/mL (≈ 1570 µM)

O=C(O)c1cn(C2CC2)c2cc(N3CCNCC3)c(F)cc2c1=O [CIPROFLOXACIN]
MIC50 [1]: 50 µg/mL (≈ 151 µM) | MIC50 [2]: 25 µg/mL (≈ 75.4 µM) | MIC50 [3]: 50 µg/mL (≈ 151 µM) | MIC50 [4]: 25 µg/mL (≈ 75.4 µM)

Cc1ccc2nc(-c3cnn(-c4ccc(F)c(F)c4)c3)oc2c1
MIC50 [1]: 25 µg/mL (≈ 80.3 µM) | MIC50 [2]: 200 µg/mL (≈ 642 µM) | MIC50 [3]: 200 µg/mL (≈ 642 µM) | MIC50 [4]: 500 µg/mL (≈ 1610 µM) | MIC50 [5]: 500 µg/mL (≈ 1610 µM)

Cc1ccc(/C(=N\O)c2cnn(-c3ccc(F)c(F)c3)c2)c(O)c1
MIC50 [1]: 500 µg/mL (≈ 1520 µM) | MIC50 [2]: 25 µg/mL (≈ 75.9 µM) | MIC50 [3]: 250 µg/mL (≈ 759 µM) | MIC50 [4]: 50 µg/mL (≈ 152 µM) | MIC50 [5]: 500 µg/mL (≈ 1520 µM)
